Data on 23 compounds can be found in ChEMBL document CHEMBL5126512, “Current status of carbazole hybrids as anticancer agents” (Eur J Med Chem, 2022).

Series [1] deals with A549. The experiment in a line: Antiproliferative activity against human A549 cells assessed as cell growth inhibition measured after 72 hrs by MTT assay. In kind it is functional, cell-based. As to conditions: A549, 72 h. Background: Tetrazolium dyes change colour on reduction, which living cells bring about.
The subject of series [2] is HCT-116. Briefly: Antiproliferative activity against human HCT-116 cells assessed as cell growth inhibition measured after 72 hrs by MTT assay. It is filed as functional, cell-based. The conditions noted are these: HCT-116, 72 h.
For series [3], the system named is MDA-MB-231. The experiment in a line: Antiproliferative activity against human MDA-MB-231 cells assessed as cell growth inhibition measured after 72 hrs by MTT assay. In kind it is functional, cell-based. As to conditions: MDA-MB-231, 72 h.
Series [4] concerns HCT-116. The experiment in a line: Cytotoxicity against human HCT-116 cells assessed as cell growth inhibition measured after 48 hrs by MTT assay. It is filed as functional, cell-based. The conditions noted are these: HCT-116, 48 h.
For series [5], the system named is HepG2. Briefly: Cytotoxicity against human HepG2 cells assessed as cell growth inhibition measured after 48 hrs by MTT assay. It is filed as functional, cell-based. The conditions noted are these: HepG2, 48 h.
The subject of series [6] is MCF7. Briefly: Cytotoxicity against human MCF7 cells assessed as cell growth inhibition measured after 48 hrs by MTT assay. In kind it is functional, cell-based. The conditions noted are these: MCF7, 48 h.
Series [7] can be described thus: Cytotoxicity against human RPE-1 cells assessed as cell growth inhibition measured after 48 hrs by MTT assay. It is filed as toxicity, cell-based. As to conditions: RPE-1 (TERT-RPE1) cells.
Another series relates to ASPC1. Briefly: Anticancer activity against human ASPC1 cells assessed as cell growth inhibition measured after 72 hrs by Cell-Titre Glo luminescent cell viability assay. In kind it is functional, cell-based. As to conditions: ASPC1, 72 h.
For another series, the system named is SW1990. Briefly: Anticancer activity against human SW1990 cells assessed as cell growth inhibition measured after 72 hrs by Cell-Titre Glo luminescent cell viability assay. As to conditions: SW1990, 72 h. It is filed as functional, cell-based.
The test system of series [8] is MCF7. The experiment in a line: Antiproliferative activity against human MCF7 cells assessed as cell growth inhibition measured after 48 hrs by SRB assay. In kind it is functional, cell-based. The conditions noted are these: MCF7, time 48 hrs. (In general: Sulforhodamine B stains cellular protein and so reports cell mass.)
The test system of series [9] is MDA-MB-231. Briefly: Antiproliferative activity against human MDA-MB-231 cells assessed as cell growth inhibition measured after 48 hrs by SRB assay. As to conditions: MDA-MB-231, time 48 hrs. It is filed as functional, cell-based.
The subject of a further series is HeLa. The experiment in a line: Antiproliferative activity against human HeLa cells assessed as cell growth inhibition by MTT assay. It is filed as functional, cell-based.
In series [10] the test system is MDA-MB-231. The experiment in a line: Antiproliferative activity against human MDA-MB-231 cells assessed as cell growth inhibition by MTT assay. In kind it is functional, cell-based.
Series [11] relates to A549. Briefly: Cytotoxicity against human A549 cells assessed as cell growth inhibition measured after 24 hrs by MTT assay. It is filed as functional, cell-based. The conditions noted are these: A549, 24 h, pooled result: one value given for 4 cell lines, strains, targets or settings.
A short description of series [12]: Cytotoxicity against human A875 cells assessed as cell growth inhibition measured after 72 hrs by MTT assay. It is filed as functional, cell-based. The conditions noted are these: A875, 72 h.
Series [13] concerns HepG2. Briefly: Cytotoxicity against human HepG2 cells assessed as cell growth inhibition measured after 72 hrs by MTT assay. In kind it is functional, cell-based. As to conditions: HepG2, 72 h.
The nature of series [14]: Cytotoxicity against green monkey MARC145 cells assessed as cell growth inhibition measured after 72 hrs by MTT assay. It is filed as toxicity, cell-based, Chlorocebus aethiops.

What is called IC50 is the midpoint of a concentration-inhibition curve. For the compound `OC(CN1CCCCC1)Cn1c2ccc(Cl)cc2c2cc(Cl)ccc21` (stereo not given), the IC50 in the series on A549 [1], in the series with HCT-116 [2] and in the series on MDA-MB-231 [3] was 7.1 µM each time.

For the compound `CCn1c2ccccc2c2cc(NC(=O)c3c(N)n[nH]c3Nc3ccccc3)ccc21`, the IC50 in the series on HCT-116 [4], in the series with HepG2 [5] and in the series on MCF7 [6] was 2.97 µM throughout. Further, the IC50 at 48 h in series [7] is above 100 µM.

Take `CCCCn1c2ccc(Br)cc2c2cc(/C=N/NC(=O)c3ccncc3)ccc21`: the IC50 with ASPC1 and in the series on SW1990 was 3.42 µM in each case.

Turning to `CCn1c2ccccc2c2cc(NC(=O)c3cc4cccc(OC)c4oc3=O)ccc21`, the IC50 in the series on HCT-116 [4], in the series with HepG2 [5] and in the series on MCF7 [6] was 0.9 µM in each case. Also, the IC50 at 48 h in series [7] was above 100 µM.

For the compound `CCn1c2ccccc2c2cc(NC(=O)c3cc4cc(Br)cc(Br)c4oc3=O)ccc21`, the half-maximal inhibitory concentration (IC50) in the series on HCT-116 [4], in the series with HepG2 [5] and with MCF7 [6] was 0.9 µM throughout.

Broadly, the GI50 is the concentration that inhibits growth by half. Turning to `O=C(Cn1c2ccccc2c2ccccc21)NNC(c1ccc(O)cc1)N1CCNCC1` (stereo not given), the GI50 in the series on MCF7 [8] and in the series with MDA-MB-231 [9] was below 10 µM each time.

For `CC1CCN(CC(O)Cn2c3ccc(Cl)cc3c3cc(Cl)ccc32)CC1` (stereo not given), the 50% inhibitory concentration (IC50) in the series on A549 [1], in the series on HCT-116 [2] and in the series with MDA-MB-231 [3] was 7.1 µM in each case.

As to `Oc1c(C(c2ccc(C(F)(F)F)cc2)N2CCCC2)ccc2[nH]c3ccccc3c12` (stereo not given), the IC50 with HeLa and in the series with MDA-MB-231 [10] was 5.4 µM in each case.

Take `COc1cc(-c2cc(-c3ccc4c(c3)c3ccccc3n4-c3nc(-c4ccc(Cl)cc4)ns3)on2)cc(OC)c1OCc1cc(-c2ccncc2)no1`: in the series on A549 [11], the IC50 was determined as 0.01 µM.

Consider `CC1CCCCN1CC(O)Cn1c2ccc(Cl)cc2c2cc(Cl)ccc21` (stereo not given), for which the IC50 in the series on A549 [1], in the series on HCT-116 [2] and with MDA-MB-231 [3] was 7.1 µM each time.

On to `COc1cc(-c2cc(COc3c(OC)cc(-c4cc(-c5ccc6c(c5)c5ccccc5n6-c5nc(-c6ccc(Cl)cc6)ns5)on4)cc3OC)on2)cc(OC)c1OC`, for which the IC50 with A549 [11] was determined as 0.021 µM.

Take `O=C(CCCn1c2ccc(Br)cc2c2cc(Br)ccc21)NCCN1CCNCC1`: the GI50 stood at 8 µM in the series with MCF7 [8] and 4.7 µM in the series with MDA-MB-231 [9].

`Oc1c(C(c2ccc(Br)cc2)N2CCCC2)ccc2[nH]c3ccccc3c12` (stereo not given): the IC50 with HeLa and in the series on MDA-MB-231 [10] was 5.4 µM each time.

On to `Cc1c(C(=O)NCCc2c[nH]c3ccccc23)ccc2c3ccccc3n(C)c12`, for which the IC50 (in series [12]; in the series with HepG2 [13]) was above 53.8 µM in each case. Also, the IC50 at 72 h in series [14] was above 53.8 µM.

On to `O=C(Cn1c2ccccc2c2ccccc21)NNC(c1ccc([N+](=O)[O-])cc1)N1CCNCC1` (stereo not given), for which the GI50 with MCF7 [8] and with MDA-MB-231 [9] was below 10 µM each time.

As to `CCCCCCn1c2ccccc2c2cc(/C=N/NC(=O)c3ccncc3)ccc21`, the IC50 in the series with ASPC1 and in the series on SW1990 was 3.42 µM throughout.

Turning to `COc1ccc(C(NNC(=O)Cn2c3ccccc3c3ccccc32)N2CCNCC2)cc1` (stereo not given), the GI50 in the series on MCF7 [8] and in the series with MDA-MB-231 [9] was below 10 µM throughout.

For `CCn1c2ccccc2c2cc(NC(=O)c3c(N)n[nH]c3Nc3ccc(Cl)cc3)ccc21`, the IC50 in the series on HCT-116 [4], in the series on HepG2 [5] and in the series on MCF7 [6] was 2.97 µM in each case. Also, the IC50 at 48 h in series [7] is above 100 µM.

Take `Cc1c(C(=O)N/N=C/c2c[nH]c3ccccc23)ccc2c1[nH]c1ccccc12`: in the series on HepG2 [13], the IC50 is above 13.3 µM.

Take `Cc1c(C(=O)NCCc2c[nH]c3ccccc23)ccc2c1[nH]c1ccccc12`: the IC50 (in series [12]; in the series with HepG2 [13]) was 20 µM each time. The IC50 at 72 h in series [14] was found to be 20 µM.

Turning to `COc1cc([C@@H]2c3cc4c(cc3[C@@H](O[C@@H]3O[C@@H]5CO[C@@H](C)O[C@H]5[C@H](O)[C@H]3O)[C@H]3COC(=O)[C@H]23)OCO4)cc(OC)c1O` [ETOPOSIDE], in the series on A549 [11], the IC50 is 1.97 µM.

`O=c1[nH]cc(F)c(=O)[nH]1` [FLUOROURACIL]: the IC50 (in series [12]; in the series with HepG2 [13]) was 72.3 µM throughout. Besides, the IC50 at 72 h in series [14] was found to be 72.3 µM.

As to `Nc1ccn([C@@H]2O[C@H](CO)[C@@H](O)C2(F)F)c(=O)n1` [GEMCITABINE], the IC50 with ASPC1 came to 35.1 µM; with SW1990, 40.2 µM.
